Values quoted from earlier work in US8715625B1, “Natural oral care compositions” (The Clorox Company, priority 2010, dated 2014).

System: plaque
Conditions: two tests conducted by Purdue University's Dental Science Research Group

C=C1C[C@@]23CC[C@H]4[C@@](C)(CCC[C@@]4(C)C(=O)O[C@@H]4O[C@H](CO)[C@@H](O)[C@H](O)[C@H]4O)[C@@H]2CC[C@]1(O[C@@H]1O[C@H](CO)[C@@H](O)[C@H](O)[C@H]1O[C@@H]1O[C@H](CO)[C@@H](O)[C@H](O)[C@H]1O)C3 [Stevioside]
development of plaque: “significantly” inhibits the development of plaque
